Assay results published in ChEMBL document CHEMBL4130444, “1,4-Naphthoquinones as inhibitors of Itch, a HECT domain-E3 ligase, and tumor growth suppressors in multiple myeloma” (Eur J Med Chem, 2017).

Legend:
MDA-MB-231 = experiment: Antiproliferative activity against human MDA-MB-231 cells incubated for 48 hrs by SRB assay; assay type: functional; details: MDA-MB-231, 48 h
HCT-116 = experiment: Antiproliferative activity against human HCT116 cells incubated for 48 hrs by SRB assay; assay type: functional; details: HCT-116, 48 h

GI50 (MDA-MB-231) [µM] | GI50 (HCT-116) [µM] | SMILES
> 10 | > 10 | O=C(Nc1nccs1)c1ccc(CNC2=C(Cl)C(=O)c3ccccc3C2=O)cc1
> 10 | > 10 | O=C(Nc1ccc2cn[nH]c2c1)c1ccc(CNC2=C(Cl)C(=O)c3ccccc3C2=O)cc1

The remaining lines, values behind:

SMILES | GI50 (MDA-MB-231) [µM] | GI50 (HCT-116) [µM]
O=C(Nc1ccc2[nH]cnc2c1)c1ccc(CNC2=C(Cl)C(=O)c3ccccc3C2=O)cc1 | > 10 | > 10
O=C(Nc1cccc2ncccc12)c1ccc(CNC2=C(Cl)C(=O)c3ccccc3C2=O)cc1 | > 10 | > 10
Nc1ccn(C(=O)c2ccc(CNC3=C(Cl)C(=O)c4ccccc4C3=O)cc2)n1 | > 10 | > 10
O=C(Nc1ccc(F)cc1)c1ccc(CNC2=C(Cl)C(=O)c3ccccc3C2=O)cc1 | > 10 | > 10
O=C(Nc1cnc2ccccc2c1)c1ccc(CNC2=C(Cl)C(=O)c3ccccc3C2=O)cc1 | > 10 | > 10
O=C(Nc1nc2ccccc2[nH]1)c1ccc(CNC2=C(Cl)C(=O)c3ccccc3C2=O)cc1 | 8.9 | > 10
